Experimental data published in paper PMC11882969 (Nature Communications, 2025).
“And” between values parts separate entries of the source, which are not always exact repeats. Equal entries are not always repeated.

Legend:
Assay type in all cases: cell-based
hCB1 [1] = target: T1, hCB1 (Homo sapiens, UniProt P21554); assay: Tango β-arrestin-2 recruitment, HTLA cells, CB1R; parameters: expressed in transfected cells; host or cells: HTLA cells (gift of R. Axel), transient transfection
hCB1 [2] = target: T1, hCB1; assay: Lance Ultra cAMP accumulation assay, CHO cells; parameters: expressed in transfected cells; conditions: for normalised cAMP response, concentration-response (Figure2f), replicate values: log[Compound;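 for all read-outs here: human CB1R stably expressed in CHO cells, ligands co-incubated with forskolin at room temperature, read-out is lowering of forskolin-stimulated cAMP accumulation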
hCB2 = hCB2 (Homo sapiens, UniProt P34972); assay: TRUPATH BRET2 GoA dissociation, HEK293T; parameters: expressed in transfected cells; host or cells: HEK293T cells (ATCC: CRL-3216), transient co-transfection; conditions: for functional response, concentration-response point (FigS7e, normalized): Log[drug], replicate columns
Chain of hCB2 (P34972 whole entry): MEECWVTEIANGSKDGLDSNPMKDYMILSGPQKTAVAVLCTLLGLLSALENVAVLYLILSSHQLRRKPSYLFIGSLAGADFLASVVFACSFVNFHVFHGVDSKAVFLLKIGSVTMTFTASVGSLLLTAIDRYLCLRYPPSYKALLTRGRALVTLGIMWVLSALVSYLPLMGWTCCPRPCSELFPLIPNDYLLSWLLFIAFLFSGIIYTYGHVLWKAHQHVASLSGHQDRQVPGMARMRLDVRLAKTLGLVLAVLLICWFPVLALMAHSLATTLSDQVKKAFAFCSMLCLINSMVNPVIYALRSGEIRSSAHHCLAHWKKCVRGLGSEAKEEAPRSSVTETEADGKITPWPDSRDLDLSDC

T1 sequence (P21554 whole entry): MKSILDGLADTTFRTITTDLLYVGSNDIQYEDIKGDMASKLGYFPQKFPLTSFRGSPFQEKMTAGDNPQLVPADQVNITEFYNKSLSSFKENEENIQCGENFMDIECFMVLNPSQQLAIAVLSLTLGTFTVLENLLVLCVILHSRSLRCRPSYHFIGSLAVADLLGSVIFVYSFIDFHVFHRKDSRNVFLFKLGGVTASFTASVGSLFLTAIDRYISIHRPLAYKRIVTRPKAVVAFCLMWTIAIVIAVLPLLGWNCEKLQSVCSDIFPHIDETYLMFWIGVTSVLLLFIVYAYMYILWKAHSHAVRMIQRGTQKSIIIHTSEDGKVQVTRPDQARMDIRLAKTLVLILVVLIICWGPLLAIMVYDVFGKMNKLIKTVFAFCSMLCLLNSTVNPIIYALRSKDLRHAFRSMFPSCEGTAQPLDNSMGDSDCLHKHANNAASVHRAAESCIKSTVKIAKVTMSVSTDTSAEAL

With `COC(=O)C(NC(=O)c1cc(C)n(-c2cccc(C(F)(F)F)c2)n1)c1cccs1` (centres unmarked) [‘60154] the “response at Log[drug], M -8.52 (FigS4e)” value (hCB1 [1]; Log[drug], M = -8.52, individual replicates) was -0.1435 and -1.173 and 0.8807 and -1.256 and 3.396 and 0.2695 and 3.693 and -1.556 and 1.54 and 0.762 and 0.3566 and -1.166, the “response at Log[drug], M -9 (FigS4e)” value (hCB1 [1]; Log[drug], M = -9, individual replicates) was -0.3789 and 0.9257 and 0.4985 and -1.1206 and 0.6246 and 1.649 and 1.459 and 1.082 and -0.1538 and 1.773 and 1.969 and 1.368 and the “response, replicate values of concentration-response curve (FigS7f)” value (hCB1 [1]; Log[drug], M = -9.52) was 41.217 and -5.872 and -26.7955 and -2.208 and 11.6321 and -16.1909 and 10.2609 and 13.9367 and -21.8387 and 26.5917. The “response at Log[drug], M -9.52 (FigS4e)” value (hCB1 [1]; Log[drug], M = -9.52, individual replicates) was -0.6308 and 0.506 and 1.398 and 0.3411 and 1.417 and 1.054 and 1.983 and 0.4806 and -1.1508 and 1.754 and 1.621 and -0.4835, the “response, replicate values of concentration-response curve (FigS7f)” value (hCB1 [1]; Log[drug], M = -10) was 24.3711 and 8.545 and -42.2513 and 15.4728 and -21.9203 and 6.572 and 26.8747 and -5.278 and 28.0467 and 13.9517 and the “response at Log[drug], M -10 (FigS4e)” value (hCB1 [1]; Log[drug], M = -10, individual replicates) was -0.3624 and -0.5584 and 1.6 and 1.1356 and 0.03407 and 2.157 and 0.3066 and -2.677 and -0.1348 and -0.07275 and 2.928 and 0.8882. For the same compound, the “response at Log[drug], M -10.52 (FigS4e)” value (hCB1 [1]; Log[drug], M = -10.52, individual replicates) was -0.1972 and -0.5734 and -0.1162 and -0.5884 and 2.053 and 3.553 and 2.404 and 0.5855 and 0.2182 and 0.2755 and 0.7811 and -2.185, the “response at Log[drug], M -11 (FigS4e)” value (hCB1 [1]; Log[drug], M = -11, individual replicates) was -0.4863 and -0.2436 and -0.1687 and -1.788 and -0.3582 and 1.843 and 0.2942 and 1.859 and 1.201 and 2.6701 and -0.898 and 1.465 and the “response at Log[drug], M -11.52 (FigS4e)” value (hCB1 [1]; Log[drug], M = -11.52, individual replicates) was -1.461 and -1.915 and -0.401 and -1.735 and -0.6638 and -0.2757 and -0.3004 and 0.6619 and 0.7048 and -0.5021 and 3.748 and -0.3785. For the same compound, the “response at Log[drug], M -12 (FigS4e)” value (hCB1 [1]; Log[drug], M = -12, individual replicates) was 0.3314 and 0.2511 and -0.1836 and 1.061 and -0.3335 and 0.1951 and -0.1931 and -0.7644 and -0.8837 and -0.1348 and 1.783 and -1.1281, the “Tango ß-arrestin recruitment pEC50” value (hCB1 [1]; hCB1) was 6.1 [6.0 – 6.1] and the EC50 (hCB1 [1]; hCB1, read-out: Tango ß-arrestin recruitment EC50) was 0.819 µM. The EC50 (hCB1 [2]) was 0.351 µM, the “Lance Ultra cAMP pEC50” value (hCB1 [2]) was 6.5 [7.0] and the Emax (hCB1 [2]; CHO) was 67%. For the same compound, the “normalised cAMP response, concentration-response (Figure2f), replicate values” (“normalised cAMP response” for short) (hCB1 [2]; M] -5) was 47.6767 and 42.0056 and 42.3397, the “normalised cAMP response” value (hCB1 [2]; M] -6) was 18.5649 and 64.1261 and 62.9313 and 54.4312 and the “normalised cAMP response” value (hCB1 [2]; M] -7) was 60.7575 and 85.7016 and 74.1727 and 91.7418. The “normalised cAMP response” value (hCB1 [2]; M] -8) was 71.1204 and 91.8821 and 99.3075 and 104.869, the “normalised cAMP response” value (hCB1 [2]; M] -9) was 80.377 and 105.423 and 95.8256 and 102.017 and the “normalised cAMP response” value (hCB1 [2]; M] -10) was 87.3077 and 96.5214 and 96.3615 and 92.9435. The “normalised cAMP response” value (hCB1 [2]; M] -11) was 91.1852 and 100.567 and 97.003 and 102.336, the “normalised cAMP response” value (hCB1 [2]; M] -12) was 91.9633 and 106.344 and 93.1819 and 97.7717 and the “BRET2 + GoA pEC50” value (hCB2) was 6.2 [5.6 – 6.9]. The EC50 (hCB2) was 0.594 µM, the Emax (hCB2; HEK-293T) was 31% and the “functional response, concentration-response point (FigS7e, normalized)” value (shortened to “functional response … (FigS7e, normalized)”) (hCB2; M = -4.52) was 18.671 and 20.9182 and 18.0789 and 16.7004. The “functional response … (FigS7e, normalized)” value (hCB2; M = -5) was 15.3625 and 13.9237 and 14.7132 and 15.4107 and 19.4252 and 16.9876 and 18.2783 and 12.2533 and 11.9429 and 13.7725 and 13.3839 and 13.0025, the “functional response … (FigS7e, normalized)” value (hCB2; M = -5.52) was 9.963 and 10.999 and 10.5318 and 12.5419 and 11.8092 and 12.1824 and 9.605 and 7.598 and 8.713 and 9.44 and 10.8654 and 8.808 and the “functional response … (FigS7e, normalized)” value (hCB2; M = -6) was 5.593 and 3.808 and 3.775 and 3.462 and 6.67 and 5.511 and 6.374 and 4.542 and 6.846 and 4.398 and 2.755 and 4.192. For the same compound, the “functional response … (FigS7e, normalized)” value (hCB2; M = -6.52) was 2.409 and 1.324 and 2.492 and 1.478 and 2.2654 and 2.677 and 2.607 and 2.647 and 2.733 and 1.4886 and 1.807 and 1.367, the “functional response … (FigS7e, normalized)” value (hCB2; M = -7) was 1.643 and 1.038 and 0.587 and 0.6659 and 0.7726 and 0.2984 and 0.761 and 0.6332 and 1.544 and 0.7947 and 0.4011 and 0.3139 and the “functional response … (FigS7e, normalized)” value (hCB2; M = -7.52) was 0.7104 and 0.5146 and 0.05736 and 0.5245 and 1.192 and 0.7027 and 0.8893 and 0.666 and 0.5954 and 0.6963 and -0.03292 and 0.3929. The “functional response … (FigS7e, normalized)” value (hCB2; M = -8) was 0.3645 and 0.5311 and 0.5376 and 0.156 and -0.2264 and 0.2284 and 0.4344 and -0.3685 and 0.1487 and 0.4213 and 0.2144 and 0.1495 and the “functional response … (FigS7e, normalized)” value (hCB2; M = -8.52) was 0.07184 and -0.1728 and 0.5013 and 0.625 and -0.3869 and 0.7675 and 0.7171 and -0.3804 and 0.4049 and 0.07444 and 0.02209 and 0.4671.
